Key:
Test in all cases: relative viability vs DMSO control (72 h) (fraction); higher = more viable cells
SW872 = system: SW872
Summary of the method: (§1)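 After seeding at densities set for 80–90% confluence in 384-well plates, sarcoma cell lines waited 24 h before 2.5 µl of serially diluted compound was added. Source plates held 10 mM down to 0.0002 mM. Plates were incubated 72 h at 37 °C with 5% CO2, with 0.1% DMSO vehicle and a 5 µM positive control, and relative viability was taken from ATPLite as percent growth averaged over up to triplicate wells, with 1 set as full and 0 as none.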

KHOS-240S = system: KHOS-240S
Summary of the method: as §1

SK-LMS-1 = system: SK-LMS-1
Summary of the method: as §1

SW1353 = system: SW1353
Summary of the method: as §1

RD-ES = system: RD-ES
Summary of the method: as §1

HT1080 = system: HT1080
Summary of the method: as §1

RD = system: RD
Summary of the method: as §1

SYO-1 = system: SYO-1
Summary of the method: as §1

G401 = system: G401
Summary of the method: as §1

HS729 = system: HS729
Summary of the method: as §1

SW684 = system: SW684
Summary of the method: as §1

KHOS-NP = system: KHOS-NP
Summary of the method: as §1

CNC(=O)c1cccc2cc(Oc3ccnc4cc(OCC5(N)CC5)c(OC)cc34)ccc12 [Lucitanib]
Settings	relative viability
G401, 0.00017 µM	1.07
G401, 0.00051 µM	1.04
G401, 0.00152 µM	1.02
G401, 0.00457 µM	0.989
G401, 0.01372 µM	1
G401, 0.04115 µM	1.01
G401, 0.1235 µM	0.964
G401, 0.3704 µM	0.888
G401, 1.111 µM	0.641
G401, 3.333 µM	0.451
G401, 10 µM	0.349
HS729, 0.00017 µM	1.08
HS729, 0.00051 µM	1.07
HS729, 0.00152 µM	1.07
HS729, 0.00457 µM	1.04
HS729, 0.01372 µM	1.01
HS729, 0.04115 µM	0.983
HS729, 0.1235 µM	0.915
HS729, 0.3704 µM	0.866
HS729, 1.111 µM	0.692
HS729, 3.333 µM	0.618
HS729, 10 µM	0.568
HT1080, 0.00017 µM	1.08
HT1080, 0.00051 µM	1.09
HT1080, 0.00152 µM	1.1
HT1080, 0.00457 µM	1.07
HT1080, 0.01372 µM	1.1
HT1080, 0.04115 µM	1.09
HT1080, 0.1235 µM	1.095
HT1080, 0.3704 µM	1.09
HT1080, 1.111 µM	1.11
HT1080, 3.333 µM	1.12
HT1080, 10 µM	1.14
KHOS-240S, 0.00017 µM	1.1
KHOS-240S, 0.00051 µM	1.05
KHOS-240S, 0.00152 µM	1.1
KHOS-240S, 0.00457 µM	1.06
KHOS-240S, 0.01372 µM	1.07
KHOS-240S, 0.04115 µM	1.05
KHOS-240S, 0.1235 µM	1.02
KHOS-240S, 0.3704 µM	0.946
KHOS-240S, 1.111 µM	0.817
KHOS-240S, 3.333 µM	0.771
KHOS-240S, 10 µM	0.632
KHOS-NP, 0.00017 µM	1.103
KHOS-NP, 0.00051 µM	1.13
KHOS-NP, 0.00152 µM	1.12
KHOS-NP, 0.00457 µM	1.11
KHOS-NP, 0.01372 µM	1.11
KHOS-NP, 0.04115 µM	1.11
KHOS-NP, 0.1235 µM	1.126
KHOS-NP, 0.3704 µM	1.11
KHOS-NP, 1.111 µM	1.12
KHOS-NP, 3.333 µM	1.12
KHOS-NP, 10 µM	1.13
RD, 0.00017 µM	1.08
RD, 0.00051 µM	1.12
RD, 0.00152 µM	1.1
RD, 0.00457 µM	1.13
RD, 0.01372 µM	1.09
RD, 0.04115 µM	1.129
RD, 0.1235 µM	1.13
RD, 0.3704 µM	1.142
RD, 1.111 µM	1.144
RD, 3.333 µM	1.12
RD, 10 µM	0.9078
RD-ES, 0.00017 µM	0.984
RD-ES, 0.00051 µM	1.01
RD-ES, 0.00152 µM	1
RD-ES, 0.00457 µM	1
RD-ES, 0.01372 µM	0.969
RD-ES, 0.04115 µM	0.99
RD-ES, 0.1235 µM	0.981
RD-ES, 0.3704 µM	0.949
RD-ES, 1.111 µM	0.92
RD-ES, 3.333 µM	0.882
RD-ES, 10 µM	0.798
SK-LMS-1, 0.00017 µM	1.071
SK-LMS-1, 0.00051 µM	1.09
SK-LMS-1, 0.00152 µM	1.056
SK-LMS-1, 0.00457 µM	1.08
SK-LMS-1, 0.01372 µM	1.04
SK-LMS-1, 0.04115 µM	1.03
SK-LMS-1, 0.1235 µM	0.988
SK-LMS-1, 0.3704 µM	0.999
SK-LMS-1, 1.111 µM	0.958
SK-LMS-1, 3.333 µM	0.8754
SK-LMS-1, 10 µM	0.758
SW684, 0.00017 µM	1.14
SW684, 0.00051 µM	1.23
SW684, 0.00152 µM	1.26
SW684, 0.00457 µM	1.23
SW684, 0.01372 µM	1.21
SW684, 0.04115 µM	1.21
SW684, 0.1235 µM	1.15
SW684, 0.3704 µM	1.18
SW684, 1.111 µM	1.19
SW684, 3.333 µM	1.12
SW684, 10 µM	1.11
SW872, 0.00017 µM	1.07
SW872, 0.00051 µM	1.08
SW872, 0.00152 µM	1.056
SW872, 0.00457 µM	1.07
SW872, 0.01372 µM	1.07
SW872, 0.04115 µM	1.059
SW872, 0.1235 µM	1.038
SW872, 0.3704 µM	1.057
SW872, 1.111 µM	1.07
SW872, 3.333 µM	1.04
SW872, 10 µM	0.961
SW1353, 0.00017 µM	1.11
SW1353, 0.00051 µM	1.06
SW1353, 0.00152 µM	1.04
SW1353, 0.00457 µM	1.067
SW1353, 0.01372 µM	1.03
SW1353, 0.04115 µM	0.967
SW1353, 0.1235 µM	0.938
SW1353, 0.3704 µM	0.909
SW1353, 1.111 µM	0.8515
SW1353, 3.333 µM	0.862
SW1353, 10 µM	0.874
SYO-1, 0.00017 µM	1.03
SYO-1, 0.00051 µM	1.04
SYO-1, 0.00152 µM	1.01
SYO-1, 0.00457 µM	0.984
SYO-1, 0.01372 µM	0.919
SYO-1, 0.04115 µM	0.825
SYO-1, 0.1235 µM	0.688
SYO-1, 0.3704 µM	0.561
SYO-1, 1.111 µM	0.504
SYO-1, 3.333 µM	0.49
SYO-1, 10 µM	0.385

CCOc1cc2ncc(C#N)c(Nc3ccc(OCc4ccccn4)c(Cl)c3)c2cc1NC(=O)/C=C/CN(C)C [Neratinib]
Settings	relative viability
G401, 0.00017 µM	1.02
G401, 0.00051 µM	1
G401, 0.00152 µM	0.998
G401, 0.00457 µM	0.992
G401, 0.01372 µM	1
G401, 0.04115 µM	0.95
G401, 0.1235 µM	0.93
G401, 0.3704 µM	0.791
G401, 1.111 µM	0.692
G401, 3.333 µM	0.56
G401, 10 µM	0.0616
HS729, 0.00017 µM	0.944
HS729, 0.00051 µM	0.922
HS729, 0.00152 µM	0.955
HS729, 0.00457 µM	0.905
HS729, 0.01372 µM	0.925
HS729, 0.04115 µM	0.861
HS729, 0.1235 µM	0.771
HS729, 0.3704 µM	0.672
HS729, 1.111 µM	0.639
HS729, 3.333 µM	0.645
HS729, 10 µM	0.00633
HT1080, 0.00017 µM	1.05
HT1080, 0.00051 µM	1.05
HT1080, 0.00152 µM	1.028
HT1080, 0.00457 µM	1.04
HT1080, 0.01372 µM	1.047
HT1080, 0.04115 µM	1.07
HT1080, 0.1235 µM	1.08
HT1080, 0.3704 µM	0.992
HT1080, 1.111 µM	0.726
HT1080, 3.333 µM	0.603
HT1080, 10 µM	0.00637
KHOS-240S, 0.00017 µM	1.03
KHOS-240S, 0.00051 µM	1.06
KHOS-240S, 0.00152 µM	1.06
KHOS-240S, 0.00457 µM	1.06
KHOS-240S, 0.01372 µM	1.05
KHOS-240S, 0.04115 µM	1.03
KHOS-240S, 0.1235 µM	1
KHOS-240S, 0.3704 µM	0.896
KHOS-240S, 1.111 µM	0.741
KHOS-240S, 3.333 µM	0.618
KHOS-240S, 10 µM	0.338
KHOS-NP, 0.00017 µM	1.042
KHOS-NP, 0.00051 µM	1.022
KHOS-NP, 0.00152 µM	1.022
KHOS-NP, 0.00457 µM	1.01
KHOS-NP, 0.01372 µM	1.04
KHOS-NP, 0.04115 µM	1.01
KHOS-NP, 0.1235 µM	1.05
KHOS-NP, 0.3704 µM	1.02
KHOS-NP, 1.111 µM	0.73
KHOS-NP, 3.333 µM	0.484
KHOS-NP, 10 µM	0.486
RD, 0.00017 µM	1.12
RD, 0.00051 µM	1.1
RD, 0.00152 µM	1.11
RD, 0.00457 µM	1.11
RD, 0.01372 µM	1.09
RD, 0.04115 µM	1.072
RD, 0.1235 µM	0.95
RD, 0.3704 µM	0.714
RD, 1.111 µM	0.562
RD, 3.333 µM	0.384
RD, 10 µM	0.0033
RD-ES, 0.00017 µM	1.03
RD-ES, 0.00051 µM	1.01
RD-ES, 0.00152 µM	0.999
RD-ES, 0.00457 µM	0.996
RD-ES, 0.01372 µM	0.997
RD-ES, 0.04115 µM	0.977
RD-ES, 0.1235 µM	0.938
RD-ES, 0.3704 µM	0.737
RD-ES, 1.111 µM	0.498
RD-ES, 3.333 µM	0.431
RD-ES, 10 µM	0.345
SK-LMS-1, 0.00017 µM	1.03
SK-LMS-1, 0.00051 µM	1
SK-LMS-1, 0.00152 µM	1.06
SK-LMS-1, 0.00457 µM	1.02
SK-LMS-1, 0.01372 µM	1.08
SK-LMS-1, 0.04115 µM	1.06
SK-LMS-1, 0.1235 µM	0.943
SK-LMS-1, 0.3704 µM	0.724
SK-LMS-1, 1.111 µM	0.698
SK-LMS-1, 3.333 µM	0.646
SK-LMS-1, 10 µM	0.0104
SW684, 0.00017 µM	1.16
SW684, 0.00051 µM	1.1
SW684, 0.00152 µM	1.11
SW684, 0.00457 µM	1.13
SW684, 0.01372 µM	1.16
SW684, 0.04115 µM	1.116
SW684, 0.1235 µM	1.06
SW684, 0.3704 µM	0.848
SW684, 1.111 µM	0.826
SW684, 3.333 µM	0.792
SW684, 10 µM	-0.0161
SW872, 0.00017 µM	1.03
SW872, 0.00051 µM	1.02
SW872, 0.00152 µM	1.03
SW872, 0.00457 µM	1.03
SW872, 0.01372 µM	1.01
SW872, 0.04115 µM	0.97
SW872, 0.1235 µM	0.932
SW872, 0.3704 µM	0.76
SW872, 1.111 µM	0.609
SW872, 3.333 µM	0.492
SW872, 10 µM	-0.00553
SW1353, 0.00017 µM	0.971
SW1353, 0.00051 µM	0.955
SW1353, 0.00152 µM	0.923
SW1353, 0.00457 µM	0.934
SW1353, 0.01372 µM	0.899
SW1353, 0.04115 µM	0.807
SW1353, 0.1235 µM	0.71
SW1353, 0.3704 µM	0.568
SW1353, 1.111 µM	0.525
SW1353, 3.333 µM	0.426
SW1353, 10 µM	0.0062
SYO-1, 0.00017 µM	0.957
SYO-1, 0.00051 µM	0.955
SYO-1, 0.00152 µM	0.938
SYO-1, 0.00457 µM	0.932
SYO-1, 0.01372 µM	0.931
SYO-1, 0.04115 µM	0.917
SYO-1, 0.1235 µM	0.875
SYO-1, 0.3704 µM	0.716
SYO-1, 1.111 µM	0.581
SYO-1, 3.333 µM	0.431
SYO-1, 10 µM	-0.0166

— the supplement of paper PMC10883282
